Measurements as given in patent US20250388535A1, “SULFONATED AND SULFATED ARYL-ALKYL COMPOUNDS USEFUL AS SURFACTANTS” (SPECIALTY OPERATIONS FRANCE, priority 2022, published 2025).

Test: Surface activity: critical micelle concentration and surface tension by force tensiometer
Format: physicochemical
Settings: for CMC / Surface tension (at CMC): aqueous solution, room temperature; for Cross-sectional area: area occupied by the surfactant molecule at the surface; for Cross-sectional area / Surface excess: from Gibbs adsorption equation
Method: Critical micelle concentrations (CMC) and surface tensions (ST) were measured for aqueous solutions of the surfactants of the present invention at room temperature using a force tensiometer (Sigma 700/701). Plots of surface tension against surfactant concentration were drawn allowing to determine CMC and surface tension at the CMC. Using the Gibbs adsorption equation it is possible to determine the surface excess as well as the area occupied by the surfactant molecule at the surface (as a reference see for example “Industrial Utilization of Surfactants: principles and practice”, M. J. Rosen and M. Dahanayake, 2000, ISBN 1893997111) which are important parameters to characterize a surfactant.

Compound	CMC	Surface tension (at CMC)	Cross-sectional area	Surface excess
CCCCCCCCCCCCCCC(C(=O)c1ccccc1)S(=O)(=O)[O-].[Na+] (centres unmarked) [PAKS-C16]	0.23 mM	44 mN/m	0.64 nm^2	0.0026 mmol/m^2
CCCCCCCCCCCCCCC(C(O)c1ccccc1)S(=O)(=O)[O-].[Na+] (centres unmarked) [PAS-C16]	0.22 mM	36 mN/m	0.53 nm^2	0.0031 mmol/m^2
